Data taken from US7667036B2, “Pyrazolo[1,5-a]pyrimidine derivatives” (Teijin Pharma Limited, priority 2004, dated 2010).

Target: T1, MAPKAP-K2 (Homo sapiens, UniProt P49137)
Experiment: MAPKAP-K2 enzyme activity inhibition assay, Method B (33P-ATP, MultiScreen-PH plate)
Type: biochemical
Settings: recombinant human MAPKAP-K2, 0.5% DMSO, 30 min room temperature, read-out: Inhibitory activity (MAPKAP-K2 IC50 class)
Procedure: (§1) The assay of inhibitory activity was performed according to Method A described below for Compound No. 1, 2, 3, 4, 20, 21, 22, 23, 24, 25, 26, 79, 80 and 81, and Method B described below for the other compounds.
A compound was dissolved in […] to make its concentration to 20 mmol/L, and the resultant solution was stored at −20° C. The stock solution was sequentially diluted with DMSO to prepare a solution having a 200-fold concentration of the required range. Further the solution was diluted with water to 1:20 to prepare a solution having a 10-fold concentration of the required range, and an aliquot of 5 μL of each solution was used for every reaction with 50 μL. During the continuous dilution of all compounds, the final DMSO concentration was maintained at 0.5%. Compounds were routinely tested at a final concentration ranging from 100 μmol/L to 0.03 μmol/L, but were sometimes tested at a lower concentration depending upon their activity.
The reaction was initiated by adding 25 μL of a peptide substrate solution [60 μmol/L substrate peptide, 20 μmol/L ATP, 50 mmol/L Tris buffer (pH 7.5), 0.1 mmol/L EGTA, 0.1% β-mercaptoetanol, 20 mmol/L magnesium acetate, and 0.1 μCi [γ-33P]ATP (specific radio activity: approximately 110 TBq/mmol)] to 5 μL of a 5% DMSO solution of the test compound and subsequently adding 20 μL of a MAPKAP-K2 enzyme solution [10 mU recombinant human MAPKAP-K2, 50 mmol/L Tris buffer (pH 7.5), 0.1 mmol/L EGTA, 0.1% β-mercaptoethanol, 0.1% BSA]. After performing the reaction for 30 min at room temperature, an equivalent volume of 200 mmol/L phosphoric acid solution was added to terminate the reaction. Subsequently, 90 μL of the reaction product was adsorbed on a MultiScreen-PH Plate (Millipore) and then rinsed with 100 mmol/L phosphoric acid solution. After drying the plate, 30 μL of MicroScint-O (Packard BioScience) was added, and further the count per minute was measured by a scintillation counter to determine the inhibitory activity. The substrate peptide was Lys-Lys-Leu-Asn-Arg-Tlr-Leu-Ser-Val-Ala.
• % Control=(X−B)/(Tot−B)×100 • % Inhibition=100—% Control • X=count per minute of a test compound well • B=count per minute of a well without containing enzyme • Tot=count per minute of a well with DMSO solvent only, without containing the test compound (MAPKAP-K2 inhibitory activity) • IC50 value=the compound concentration at 50% inhibition

T1 sequence (P49137 whole entry): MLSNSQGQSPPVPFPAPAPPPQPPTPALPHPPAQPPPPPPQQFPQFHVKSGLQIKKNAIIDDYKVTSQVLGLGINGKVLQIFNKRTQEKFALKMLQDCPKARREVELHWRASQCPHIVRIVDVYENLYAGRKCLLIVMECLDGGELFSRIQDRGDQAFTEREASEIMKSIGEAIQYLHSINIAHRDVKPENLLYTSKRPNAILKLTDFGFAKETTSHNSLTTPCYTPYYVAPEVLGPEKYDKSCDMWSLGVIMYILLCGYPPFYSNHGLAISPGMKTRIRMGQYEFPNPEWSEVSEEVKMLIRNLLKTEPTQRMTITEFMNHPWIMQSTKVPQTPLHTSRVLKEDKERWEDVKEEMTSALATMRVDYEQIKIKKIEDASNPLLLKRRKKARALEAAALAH

**Q.** How did the IC50 turn out when CCOc1ccc(Nc2c(C)c(O[C@@H]3CNCC[C@H]3CCO)nc3ccnn23)cc1 [compound 27] was run?
**A.** ≤ 2 µM

**Q.** With CCOc1ccc(Nc2c(C)c(O[C@@H]3CC[C@@H](C)NC3)nc3ccnn23)cc1 [compound 17] as the compound, how does the IC50 read?
**A.** 2 to 20 µM

**Q.** For C=CCc1c(O[C@H]2CC[C@@H](N)CC2)nc2ccnn2c1Nc1ccc(F)c(Cl)c1 [compound 12], which IC50 is on record?
**A.** 2 to 20 µM

**Q.** For Cc1c(O[C@H]2CC[C@@H](N)CC2)nc2ccnn2c1Nc1ccc(I)cc1 [compound 77], which IC50 is on record?
**A.** ≤ 2 µM

**Q.** With CCOc1ccc(Nc2c(C)c(OC[C@H]3CCCN3)nc3ccnn23)cc1 [compound 260] as the compound, how does the IC50 read?
**A.** 20 to 100 µM

**Q.** Which IC50 does the source give for CCOc1ccc(Nc2c(C)c(OC3CCCNC3)nc3ccnn23)cc1 (stereo not drawn) [Compound No. 5, (dl)-(4-ethoxyphenyl)-[6-methyl-5-(pyperdin-3-yloxy)pyrazolo [1,5-a]pyrimidin-7-yl]-amine] here?
**A.** 2 to 20 µM

**Q.** For COc1ccc(Nc2ccc(Nc3c(C)c(OC4CCCNC4)nc4ccnn34)cc2)cc1 (stereo not drawn) [compound 59], which IC50 is on record?
**A.** ≤ 2 µM

**Q.** Which IC50 does the source give for CCOc1ccc(Nc2c(CCCO)c(O[C@H]3CC[C@H](N)CC3)nc3ccnn23)cc1 [Compound No. 88, 3-[5-(trans-4-aminocyclohexyloxy)-7-(4-ethoxyphenylamino)-pyrazolo [1,5-a]pyrimidin-6-yl]propan-1-ol] here?
**A.** ≤ 2 µM

**Q.** CCOc1ccc(Nc2c(C)c(OC[C@@H]3CCCN3)nc3ccnn23)cc1 [compound 261] was tested. Which IC50 did it give?
**A.** 20 to 100 µM

**Q.** With CCOc1ccc(Nc2c(C)c(OC3CCNCC3)nc3ccnn23)cc1 [compound 239] as the compound, how does the IC50 read?
**A.** ≤ 2 µM

**Q.** How did the IC50 turn out when CCOc1ccc(Nc2c(C)c(O[C@@H]3CNCC[C@H]3CC(=O)NC3CC3)nc3ccnn23)cc1 [compound 86] was run?
**A.** 2 to 20 µM

**Q.** With CCOc1ccc(Nc2c(C)c(O[C@@H]3CN(C(=O)OCc4ccccc4)CC[C@H]3CC(=O)NCc3ccccc3)nc3ccnn23)cc1 [compound 87] as the compound, how does the IC50 read?
**A.** 20 to 100 µM

**Q.** For CSc1nc2ccc(Nc3c(C)c(OC4CCCNC4)nc4ccnn34)cc2s1 (stereo not drawn) [compound 45], which IC50 is on record?
**A.** ≤ 2 µM

**Q.** With CCOc1ccc(Nc2c(C)c(OCCNC)nc3ccnn23)cc1 [compound 263] as the compound, how does the IC50 read?
**A.** 20 to 100 µM

**Q.** For Cc1c(O[C@H]2CC[C@@H](N)CC2)nc2ccnn2c1Nc1ccc(O)cc1 [compound 78], which IC50 is on record?
**A.** ≤ 2 µM

**Q.** For CCOc1ccc(Nc2c(C)c(O[C@@H]3CNCC[C@H]3CC(N)=O)nc3ccnn23)cc1 (racemic) [Compound No. 82, (dl)-trans-2-{3-[7-(4-ethoxyphenyamino)-6-methylpyrazolo[1,5-a]pyrimidin-5-yloxyl-p]peridin-4-yl}acetamide], which IC50 is on record?
**A.** 2 to 20 µM

**Q.** Cc1c(O[C@H]2CC[C@@H](N)CC2)nc2ccnn2c1Nc1ccc(OCc2ccccc2)cc1 [compound 76] was tested. Which IC50 did it give?
**A.** ≤ 2 µM

Target: T1, MAPKAP-K2
Experiment: MAPKAP-K2 enzyme activity inhibition assay, Method A (33P-ATP, P81 filter plate)
Type: biochemical
Settings: 10 μmol/L ATP, 30 μmol/L peptide KKLNRTLSVA, 3% DMSO, 30 min room temperature, read-out: Inhibitory activity (MAPKAP-K2 IC50 class)
Procedure: as §1
A compound was dissolved in DMSO to make its concentration to 10 mmol/L, and further a part of the resulting solution was taken out and stored at −20° C. The stock solution was diluted with DMSO to prepare a stock solution having a 30-fold concentration of the required range. Subsequently the resultant stock solution was diluted to 1:3 to prepare a stock solution having a 10-fold concentration of the required range, and an aliquot of 5 μL of each solution was used for every reaction with 50 μL. During the continuous dilution of all compounds, the final DMSO concentration was maintained at 3% and the solubility of compounds was maximized. Compounds were routinely tested at a final concentration ranging from 300 μmol/L to 0.001 μmol/L, but were sometimes tested at a lower concentration depending upon their activity. (MAPKAP-K2 Enzyme Activity Assay)
The kinase reaction was carried out using a 96-well round-bottomed polypropylene microplate. MAPKAP-Kinase 2 was diluted to 0.5 mU/μL with diluent buffer (50 mmol/L Tris/HCl (pH7.5), 0.1 mmol/L EGTA, 0.1% (v/v) β-mercaptoethanol, and 1 mg/mL BSA). To each well was added 5 μL of a compound or 30% DMSO and subsequently 25 μL of substrate cocktail (final concentration: 10 μmol/L ATP, 30 μmol/L peptide (KKLNRTLSVA), 50 mmol/L 33P-γ-ATP/Tris solution of (pH 7.5, 0.5 μCi), 0.1 mmol/L EGTA, 10 mmol/L magnesium acetate and 0.1% β-mercaptoethanol). To each well was added 20 μL of an enzyme solution or 20 μL of a diluent buffer without contabing enzyme to initiate the reaction, After shaking the plate for 10 sec, it was fibber allowed to stand at room temperature for 30 min. The reaction was terminated with 50 μL of a 150 mmol/L phosphoric acid solution. Then, 90 μL of a reaction mixture solution was transferred to a 96-well P81 filter plate (Whatmann), and incubation was performed at room temperature for 5 min. Subsequently, the filter plate was washed 4 times with 200 μL of a 75 mmol/L phosphoric acid solution per well through a plate suction manifold (Millipore), followed by further drying in an oven for 2 to 3 hrs. Next, after adding Packard Microscint “0” (30 μL) to each well and shaking the plate for 30 min, scintillation measurement was performed using a Packard TopCount scintillation counter. […]

**Q.** For C=CCC1CC(N)CCC1Oc1nc2ccnn2c(Nc2ccc(OCC)cc2)c1C (stereo not drawn) [compound 25], which IC50 is on record?
**A.** 2 to 20 µM

**Q.** CCOc1ccc(Nc2c(C)c(SCCN)nc3ccnn23)cc1 [compound 81] was tested. Which IC50 did it give?
**A.** 2 to 20 µM

**Q.** With CCOc1ccc(Nc2c(C)c(SC3CCCNC3)nc3ccnn23)cc1 (stereo not drawn) [compound 80] as the compound, how does the IC50 read?
**A.** 2 to 20 µM

**Q.** Which IC50 does the source give for C=CCC1CC(NC)CCC1Oc1nc2ccnn2c(Nc2ccc(OCC)cc2)c1C (stereo not drawn) [compound 26] here?
**A.** 2 to 20 µM
